Measurements taken from patent US8962313B2, “Method for the simultaneous induction of CTL and γδT cell” (Medinet Co., Ltd., priority 2008, dated 2015).

Tests used:
Assay type in all cases: cell-based, human
[1] = tested on: γδT cells in peripheral blood mononuclear cells; experiment: Induction of γδT cells (TCRVγ9-expressing cells) in cultured peripheral blood mononuclear cells, FACS; details: 5 μM zoledronic acid, 1,000 U/mL IL-2, Disease Antigen (+) = plus 2 μg/ml Mart-1 (A27L)
Description: (§1) 1) Peripheral blood (42 ml) was collected from a healthy donor and peripheral blood mononuclear cells were separated therefrom using a density gradient solution for blood cell separation.
(§2) 2) The resultant peripheral blood mononuclear cells were suspended in AIM-V.
(§3) 3) These peripheral blood mononuclear cells (8×10^6/4 mL) were seeded in a 6-well plate (SUMILON). Thereto was added 1,000 U/mL IL-2, to which 5 μM zoledronic acid (ZOMETA (trade name)) and 2 μg/ml Mart-1 (A27L, sequence: […]) as a peptide were further added, followed by starting culture under conditions of 37° C. and 5% CO2 concentration.
(§4) 4) In addition, AB serum was added in an amount of 10% after starting the culture.
(§5) 5) AIM-V containing 1,000 U/ml IL-2 and AB serum were added depending on the proliferation of cells, which were then cultured for 14 days.
(§6) 6) In the cell population obtained after culture for 7 days or 14 days as described above, the percentage of disease antigen specific CD8-positive T cells and the percentage of cells expressing TCRVγ9 were measured using an anti-CD8 antibody (BD Pharmingen), T-Select HLA-A*0201 Mart-1 Tetramer […] (MBL), an anti-TCRVγ9 antibody (Beckman Coulter) and an anti-CD3 antibody (Beckman Coulter) with a fluorescence-activated cell sorter (hereinafter referred to as FACS; Epics XL-MCL ADC, Beckman Coulter).

[2] = tested on: disease antigen specific CD8-positive T cells in peripheral blood mononuclear cells; experiment: Induction of disease antigen specific CD8-positive T cells (CTLs) in cultured peripheral blood mononuclear cells, FACS with Mart-1 tetramer; details: 5 μM zoledronic acid, 1,000 U/mL IL-2, Disease Antigen (+) = plus 2 μg/ml Mart-1 (A27L)
Description: as §1, §2, §3, §4, §5, §6

CD56 on γδT cells = experiment: Surface antigen (CD3, Vγ9-TCR, CD56) expression ratio of γδT cells in cultured peripheral blood mononuclear cells, FACS; details: Day 13 of culture; 5 μM zoledronic acid, 1,000 U/mL IL-2; Disease Antigen (+) = plus 2 μg/ml Mart-1 (A27L)
Description: Whether the addition of a disease antigen affects the expression ratio of CD56 on γδT Cells or not was examined by the following procedures. CD56 is an isoform of a neural cell adhesion molecule (N-CAM) and an adhesion factor known as a marker for NK cells. It is one of the markers providing indicators of the cytotoxic activity of γδT cells.
1) Peripheral blood (8 ml) was collected from a healthy donor and peripheral blood mononuclear cells were separated therefrom using a density gradient solution for blood cell separation.
as §2
3) These peripheral blood mononuclear cells (1.8×10^6/[…]) were seeded in a 12-well plate (SUMILON). Thereto was added 1,000 U/mL IL-2, to which 5 μM zoledronic acid (ZOMETA) and 2 μg/ml Mart-1 (A27L) as a peptide were further added, followed by starting culture under conditions of 37° C. and 5% CO2 concentration.
as §4
5) AIM-V containing 1,000 U/ml IL-2 and AB serum were added depending on the proliferation of cells, which were then cultured for up to 14 days.
6) In the cell population obtained after culture for up to 14 days as described above, the percentage of cells expressing TCRVγ9 or the percentage of cells expressing CD-56 were measured using an anti-TCRVγ9 antibody (Beckman Coulter), an anti-CD56 antibody (Beckman Coulter) and an anti-CD3 antibody (Beckman Coulter) with FACS (Epics XL-MCL ADC, Beckman Coulter).

For `O=P(O)(O)C(O)(Cn1ccnc1)P(=O)(O)O` [zoledronic acid], the “Expansion Fold (times) of γδT Cells Contained in Mononuclear Cells” value ([1]; Donor A, 7 days of culture) was 50.40 times, the “Percentage (%) of γδT Cells Contained in Mononuclear Cells” value (“Percentage (%) of γδT Cells Contained” below) ([1]; Donor A, 7 days of culture) was 43.7% and the “Expansion Fold (times) of γδT Cells Contained in Mononuclear Cells” value ([1]; Donor A, 14 days of culture) was 4027.31 times. For the same compound, the “Percentage (%) of γδT Cells Contained” value ([1]; Donor A, 14 days of culture) was 80.9%, the “Expansion Fold (times) of γδT Cells Contained in Mononuclear Cells” value ([1]; Donor B, 7 days of culture) was 31.31 times and the “Percentage (%) of γδT Cells Contained” value ([1]; Donor B, 7 days of culture) was 68.2%. The “Expansion Fold (times) of γδT Cells Contained in Mononuclear Cells” value ([1]; Donor B, 14 days of culture) was 1328.85 times, the “Percentage (%) of γδT Cells Contained” value ([1]; Donor B, 14 days of culture) was 99.0% and the “Expansion Fold (times) of γδT Cells Contained in Mononuclear Cells” value ([1]; Donor C, 7 days of culture) was 4.97 times. The “Percentage (%) of γδT Cells Contained” value ([1]; Donor C, 7 days of culture) was 28.6%, the “Expansion Fold (times) of γδT Cells Contained in Mononuclear Cells” value ([1]; Donor C, 14 days of culture) was 1244.02 times and the “Percentage (%) of γδT Cells Contained” value ([1]; Donor C, 14 days of culture) was 89.2%. For the same compound, the “Expansion Fold (times) of Disease Antigen Specific CD8-Positive T Cells Contained in Mononuclear Cells” value ([2]; Donor A, 7 days of culture) was 0.00 times, the “Percentage (%) of Disease Antigen Specific CD8-Positive T Cells Contained in Mononuclear Cells” value ([2]; Donor A, 7 days of culture) was 0.00% and the “Expansion Fold (times) of Disease Antigen Specific CD8-Positive T Cells Contained in Mononuclear Cells” value ([2]; Donor A, 14 days of culture) was 0.00 times. For the same compound, the “Percentage (%) of Disease Antigen Specific CD8-Positive T Cells Contained in Mononuclear Cells” value ([2]; Donor A, 14 days of culture) was 0.00%, the “Expansion Fold (times) of Disease Antigen Specific CD8-Positive T Cells Contained in Mononuclear Cells” value ([2]; Donor B, 7 days of culture) was 1.79 times and the “Percentage (%) of Disease Antigen Specific CD8-Positive T Cells Contained in Mononuclear Cells” value ([2]; Donor B, 7 days of culture) was 0.01%. The “Expansion Fold (times) of Disease Antigen Specific CD8-Positive T Cells Contained in Mononuclear Cells” value ([2]; Donor B, 14 days of culture) was 0.00 times, the “Percentage (%) of Disease Antigen Specific CD8-Positive T Cells Contained in Mononuclear Cells” value ([2]; Donor B, 14 days of culture) was 0.00% and the “Expansion Fold (times) of Disease Antigen Specific CD8-Positive T Cells Contained in Mononuclear Cells” value ([2]; Donor C, 7 days of culture) was 0.57 times. The “Percentage (%) of Disease Antigen Specific CD8-Positive T Cells Contained in Mononuclear Cells” value ([2]; Donor C, 7 days of culture) was 0.02%, the “Expansion Fold (times) of Disease Antigen Specific CD8-Positive T Cells Contained in Mononuclear Cells” value ([2]; Donor C, 14 days of culture) was 0.00 times and the “Percentage (%) of Disease Antigen Specific CD8-Positive T Cells Contained in Mononuclear Cells” value ([2]; Donor C, 14 days of culture) was 0.00%. For the same compound, the “Surface Antigen Expression Ratio (%): CD3, Gate Area Live Cells” value (CD56 on γδT cells) was 98.5%, the “Surface Antigen Expression Ratio (%): CD56, Gate Area CD3” value (CD56 on γδT cells) was 53.1% and the “Surface Antigen Expression Ratio (%): CD56, Gate Area Live Cells” value (CD56 on γδT cells) was 54.4%. For the same compound, the “Surface Antigen Expression Ratio (%): CD56, Gate Area Vγ9” value (CD56 on γδT cells) was 53.1% and the “Surface Antigen Expression Ratio (%): Vγ9-TCR, Gate Area Live Cells” value (CD56 on γδT cells) was 97.0%.
